Measured values reported in PubChem BioAssay AID206 (DTP/NCI, 2004).
Several values for one entry are separate records, joined by “and”; a condition that tells them apart may be missing. Equal values may be shown once. Results filed as inconclusive are left out.

System: nude mice, HT29 intrarenal xenograft, tumor weight T/C
Test: NCI In Vivo Anticancer Drug Screen. Data for tumor model HT29;CX-1 Human Adenocarcinoma (MER+) (intrarenal inoculation) in NU/NU Swiss (nude) mice
Settings: endpoint: mean tumor weight change, higher = larger tumour
Summary of the method: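 Readout: treated/vehicle-control ratio of the measured endpoint (tumor size or survival) in transplanted-tumor mice.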

[1] = dose: 100.0 mg/kg/injection, schedule: Q04DX004 (sc), vehicle: Klucel (hydroxypropylcellulose) (HPC)
[2] = dose: 200.0 mg/kg/injection, schedule: Q04DX004 (sc), vehicle: Klucel (hydroxypropylcellulose) (HPC)
[3] = dose: 50.0 mg/kg/injection, schedule: Q04DX004 (sc), vehicle: Klucel (hydroxypropylcellulose) (HPC)

Question: `C[C@]12CCC(=O)C=C1CC[C@@H]1[C@@H]2[C@@H](O)C[C@@]2(C)[C@H]1CC[C@]2(O)C(=O)CO` was tested. Which T/C (dose: 600.0 mg/kg/injection, schedule: Q04DX004 (sc), vehicle: Klucel (hydroxypropylcellulose) (HPC)) did it give?
Answer: 18 % of control and 26 % of control

Question: Which T/C (dose: 12.5 mg/kg/injection, schedule: Q01DX010 (sc), vehicle: water) does the source give for `O=C(Nc1ccc(C2=NCCN2)cc1)c1ccc(C(=O)Nc2ccc(C3=NCCN3)cc2)c(Cl)c1` here?
Answer: 101 % of control

Question: And the T/C (dose: 25.0 mg/kg/injection, schedule: Q01DX010 (sc), vehicle: water)?
Answer: 61 % of control

Question: What about the T/C (dose: 50.0 mg/kg/injection, schedule: Q01DX010 (sc), vehicle: water) of the same compound?
Answer: 78 % of control

Question: Which results are given for `COC(=O)NC1C(C)OC(OC2C/C=C(/C)C3C=CC4C(OC5CC(OC6CCC(OC7CC(O)C(OC8CCC(O)C(C)O8)C(C)O7)C(C)O6)C(OC(C)=O)C(C)O5)C(C)CC(C)C4C3(C)/C(O)=C3/C(=O)OC4(CC(C=O)=CC(O)C4/C=C\2C)C3=O)CC1(C)[N+](=O)[O-]` (stereo unspecified)?
Answer: T/C (dose: 12.5 mg/kg/injection, schedule: Q04DX004 (sc), vehicle: other): 92 % of control; T/C (dose: 25.0 mg/kg/injection, schedule: Q04DX004 (sc), vehicle: other): 103 % of control; T/C (dose: 50.0 mg/kg/injection, schedule: Q04DX004 (sc), vehicle: other): 51 % of control

Question: For `Cc1c(CNc2ccc(C(=O)NC(CC(=O)O)C(=O)O)cc2)ccc2nc(N)nc(N)c12` (stereo unspecified), which T/C (dose: 12.5 mg/kg/injection, schedule: Q04DX004 (sc), vehicle: saline with Tween-80) is on record?
Answer: 41 % of control

Question: With `O=S(=O)(SC(S(=O)(=O)c1ccccc1)S(=O)(=O)c1ccccc1)c1ccccc1` as the compound, how does the T/C [1] read?
Answer: 246 % of control

Question: What about the T/C [2] of the same compound?
Answer: 203 % of control

Question: What about the T/C (dose: 400.0 mg/kg/injection, schedule: Q04DX004 (sc), vehicle: Klucel (hydroxypropylcellulose) (HPC)) of the same compound?
Answer: 246 % of control

Question: `Cc1c2ccccc2cc2cccc[n+]12` was tested. Which T/C (dose: 7.5 mg/kg/injection, schedule: Q04DX004 (sc), vehicle: saline) did it give?
Answer: 116 % of control

Question: What about the T/C (dose: 15.0 mg/kg/injection, schedule: Q04DX004 (sc), vehicle: saline) of the same compound?
Answer: 63 % of control

Question: And the T/C (dose: 30.0 mg/kg/injection, schedule: Q04DX004 (sc), vehicle: saline)?
Answer: 93 % of control

Question: `COc1ccc(Cl)[n+]([O-])n1` was tested. Which T/C [3] did it give?
Answer: 64 % of control

Question: And the T/C [1]?
Answer: 66 % of control

Question: Which T/C (dose: 12.5 mg/kg/injection, schedule: Q04DX004 (sc), vehicle: Klucel (hydroxypropylcellulose) (HPC)) does the source give for `N#C[Se-].c1ccc([Te+](c2ccccc2)c2ccccc2)cc1` here?
Answer: 64 % of control

Question: And the T/C (dose: 25.0 mg/kg/injection, schedule: Q04DX004 (sc), vehicle: Klucel (hydroxypropylcellulose) (HPC))?
Answer: 44 % of control

Question: Which T/C (dose: 12.5 mg/kg/injection, schedule: Q01DX010 (sc), vehicle: Klucel (hydroxypropylcellulose) (HPC)) does the source give for `C=C1C(=O)OCC2C(C(=O)O)=CC3C(C)C(C)=CC123` (stereo unspecified) here?
Answer: 71 % of control

Question: And the T/C (dose: 25.0 mg/kg/injection, schedule: Q01DX010 (sc), vehicle: Klucel (hydroxypropylcellulose) (HPC))?
Answer: 94 % of control

Question: Which T/C (dose: 4.0 mg/kg/injection, schedule: Q04DX004 (sc), vehicle: saline with Tween-80) does the source give for `CCCCCc1cc(/C=C2/N=C(c3ccc[nH]3)C=C2OC)[nH]c1C` here?
Answer: 81 % of control

Question: What about the T/C (dose: 8.0 mg/kg/injection, schedule: Q04DX004 (sc), vehicle: saline with Tween-80) of the same compound?
Answer: 68 % of control

Question: What about the T/C (dose: 16.0 mg/kg/injection, schedule: Q04DX004 (sc), vehicle: saline with Tween-80) of the same compound?
Answer: 55 % of control and 72 % of control

Question: What about the T/C (dose: 32.0 mg/kg/injection, schedule: Q04DX004 (sc), vehicle: saline with Tween-80) of the same compound?
Answer: 76 % of control

Question: Which results are given for `NC(=S)N/N=C\c1ncccc1OCc1cccc(N)c1`?
Answer: T/C (dose: 225.0 mg/kg/injection, schedule: Q04DX004 (sc), vehicle: saline with Tween-80): 220 % of control; T/C (dose: 450.0 mg/kg/injection, schedule: Q04DX004 (sc), vehicle: saline with Tween-80): 102 % of control; T/C (dose: 900.0 mg/kg/injection, schedule: Q04DX004 (sc), vehicle: saline with Tween-80): 121 % of control; T/C (dose: 1800.0 mg/kg/injection, schedule: Q04DX004 (sc), vehicle: saline with Tween-80): 99 % of control

Question: With `O=Cc1ccc([N+](=O)[O-])s1` as the compound, how does the T/C (dose: 25.0 mg/kg/injection, schedule: Q01DX010 (sc), vehicle: saline with Tween-80) read?
Answer: 166 % of control

Question: What about the T/C (dose: 50.0 mg/kg/injection, schedule: Q01DX010 (sc), vehicle: saline with Tween-80) of the same compound?
Answer: 176 % of control

Question: What about the T/C (dose: 100.0 mg/kg/injection, schedule: Q01DX010 (sc), vehicle: saline with Tween-80) of the same compound?
Answer: 97 % of control

Question: With `CC(=O)NC(CCc1ccc(Cl)c(Cl)c1)c1cccc(O)c(=O)c1` (stereo unspecified) as the compound, how does the T/C [3] read?
Answer: 107 % of control

Question: What about the T/C [1] of the same compound?
Answer: 124 % of control

Question: And the T/C [2]?
Answer: 154 % of control

Question: With `CC(Oc1ccccc1-c1ccccc1)C(=O)N(C)C` (stereo unspecified) as the compound, how does the T/C (dose: 200.0 mg/kg/injection, schedule: Q04DX004 (sc), vehicle: saline with Tween-80) read?
Answer: 115 % of control

Question: What about the T/C (dose: 400.0 mg/kg/injection, schedule: Q04DX004 (sc), vehicle: saline with Tween-80) of the same compound?
Answer: 63 % of control

Question: What about the T/C (dose: 800.0 mg/kg/injection, schedule: Q04DX004 (sc), vehicle: saline with Tween-80) of the same compound?
Answer: 89 % of control

Question: What about the T/C (dose: 1600.0 mg/kg/injection, schedule: Q04DX004 (sc), vehicle: saline with Tween-80) of the same compound?
Answer: 55 % of control

Question: Which results are given for `CCC[CH2][Hg][Cl]`?
Answer: T/C (dose: 9.38 mg/kg/injection, schedule: Q04DX004 (sc), vehicle: Klucel (hydroxypropylcellulose) (HPC)): 83 % of control; T/C (dose: 18.75 mg/kg/injection, schedule: Q04DX004 (sc), vehicle: Klucel (hydroxypropylcellulose) (HPC)): 72 % of control; T/C (dose: 37.5 mg/kg/injection, schedule: Q04DX004 (sc), vehicle: Klucel (hydroxypropylcellulose) (HPC)): 45 % of control
